Results published in article PMC9849758, “Chemically diverse activity-based probes with unexpected inhibitory mechanisms targeting trypsin-like serine proteases” (Frontiers in Chemistry, 2023).
Counter-ions that a name gives are not always drawn. Like-named read-outs stand apart in the source and are kept apart here.

Tests used:
Test in all cases: IC50 determination, spectrophotometric protease assay
Format in all cases: biochemical
[1] = biological target: T1, uPA (recombinant urokinase plasminogen activator) (Homo sapiens, UniProt P00749)
T1 construct: purchased HYPHEN BioMed
Method: (§1) The IC50 values were determined using a spectrophotometric assay. All the experiments were conducted in duplicate. The readout consisted of evaluating the protease-mediated release of the chromophore para-nitroaniline (pNA) or fluorophore 7-amino-4-methyl coumarin (AMC) moieties from the respective substrates. Enzymatic activity was measured for 30 min at 37°C. All compounds were initially screened at three concentrations (10, 1, and .1 μM) to estimate the range of the IC50 value. Those which were able to reduce protease activity by at least 50% at a concentration of 10 μM were submitted to an exact IC50 determination. […] A third independent experiment was performed when the standard deviation of the two independent experiments was higher than […]. IC50 values were obtained by fitting the data with the four-parameter logistics equation using GraphPad Prism 9.
(§2) The conditions for each protease are described as follows, the concentration of substrate used was at the corresponding Km.

[2] = biological target: T2, Thrombin (recombinant thrombin) (Homo sapiens, UniProt P00734)
T2 construct: purchased R&D
Method: as §1, §2

[3] = biological target: T3, TLCK-treated pancreatic bovine chymotrypsin (Bos taurus, UniProt P00766); conditions: for ChTryp IC50: alkyne probes
T3 construct: TLCK-treated pancreatic bovine chymotrypsin (Sigma-Aldrich); purchased Sigma-Aldrich; host or cells: bovine pancreas
Method: as §1, §2

[4] = biological target: T4, β-tryptase (recombinant tryptase β-2) (Homo sapiens, UniProt P20231)
T4 construct: purchased EnzoLife Sciences
T4 sequence (P20231 31-275): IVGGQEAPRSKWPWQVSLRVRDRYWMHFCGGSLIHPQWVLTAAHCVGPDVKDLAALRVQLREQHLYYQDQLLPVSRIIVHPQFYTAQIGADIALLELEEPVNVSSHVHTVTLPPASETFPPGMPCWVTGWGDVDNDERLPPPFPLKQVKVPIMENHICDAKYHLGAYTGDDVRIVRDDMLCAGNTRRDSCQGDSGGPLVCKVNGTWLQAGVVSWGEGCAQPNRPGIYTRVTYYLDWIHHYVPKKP
Method: as §1, §2

[5] = biological target: T5, Neutrophil Elastase (recombinant neutrophil elastase) (Homo sapiens, UniProt P08246); conditions: for NE IC50: alkyne probes
T5 construct: purchased Enzo LifeSciences
T5 sequence (P08246 30-267): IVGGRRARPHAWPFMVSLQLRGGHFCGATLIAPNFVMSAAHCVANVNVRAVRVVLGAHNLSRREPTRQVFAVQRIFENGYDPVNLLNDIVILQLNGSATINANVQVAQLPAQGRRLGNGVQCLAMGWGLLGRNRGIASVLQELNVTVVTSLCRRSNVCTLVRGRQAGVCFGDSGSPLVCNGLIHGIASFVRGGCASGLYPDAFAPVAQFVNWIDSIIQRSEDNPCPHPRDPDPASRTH
Method: as §1, §2

[6] = biological target: T6, Cathepsin G (cathepsin G human neutrophil) (Homo sapiens, UniProt P08311); conditions: for CatG IC50: alkyne probes
T6 construct: Cathepsin G (cathepsin G human neutrophil, Sigma-Aldrich); purchased Sigma-Aldrich; host or cells: human neutrophil
T6 sequence (P08311 21-255): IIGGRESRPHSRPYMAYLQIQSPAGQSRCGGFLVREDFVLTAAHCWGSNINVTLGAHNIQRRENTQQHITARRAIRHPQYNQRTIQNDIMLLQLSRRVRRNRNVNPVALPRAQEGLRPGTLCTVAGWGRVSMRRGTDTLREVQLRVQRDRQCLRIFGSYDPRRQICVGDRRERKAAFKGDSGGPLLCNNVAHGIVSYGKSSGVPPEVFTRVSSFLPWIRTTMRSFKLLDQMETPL
Method: as §1, §2

[7] = biological target: T7, Trypsin-3 (recombinant trypsin-3) (Homo sapiens, UniProt P35030); conditions: for Trypsin-3 IC50: alkyne probes
T7 construct: purchased R&D
T7 sequence (P35030 1-304): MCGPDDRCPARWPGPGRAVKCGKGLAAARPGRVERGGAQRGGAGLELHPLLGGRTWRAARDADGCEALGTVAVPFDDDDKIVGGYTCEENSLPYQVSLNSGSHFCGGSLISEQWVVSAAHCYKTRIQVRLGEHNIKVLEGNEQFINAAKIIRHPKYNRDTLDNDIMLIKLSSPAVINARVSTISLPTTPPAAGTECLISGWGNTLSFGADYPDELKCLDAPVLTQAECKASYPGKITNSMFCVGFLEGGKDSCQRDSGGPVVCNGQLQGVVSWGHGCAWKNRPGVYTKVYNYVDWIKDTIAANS
Method: as §1, §2

[8] = 15 min preincubation at 37°C, mean ± SD
[9] = alkyne probes, 15 min preincubation at 37°C, mean ± SD
[10] = read-out: uPA IC50, desthiobiotin probes, 15 min preincubation at 37°C, mean ± SD
[11] = read-out: Thrombin IC50, desthiobiotin probes, 15 min preincubation at 37°C, mean ± SD
[12] = read-out: ChTryp IC50, desthiobiotin probes, 15 min preincubation at 37°C, mean ± SD
[13] = read-out: β-tryptase IC50, desthiobiotin probes, 15 min preincubation at 37°C, mean ± SD
[14] = read-out: NE IC50, desthiobiotin probes, 15 min preincubation at 37°C, mean ± SD
[15] = read-out: CatG IC50, desthiobiotin probes, 15 min preincubation at 37°C, mean ± SD
[16] = read-out: Trypsin-3 IC50, desthiobiotin probes, 15 min preincubation at 37°C, mean ± SD

Compound | IC50 [1] [µM] | IC50 [2] [µM] | IC50 [3] [µM] | IC50 [4] [µM] | IC50 [5] [µM] | IC50 [6] [µM] | IC50 [7] [µM] | also measured
C#CCCCOC(=O)NC(Cc1ccc(N)cc1)P(=O)(Oc1ccc(NC(C)=O)cc1)Oc1ccc(NC(C)=O)cc1 (stereo not shown) [17b] | > 10 | 2.97 ± 0.07 | 0.49 ± 0.28 | > 10 | > 10 | 0.37 ± 0.008 | 3.71 ± 0.71 | ChTryp IC50 [3, 8]: submicromolar; CatG IC50 [6, 8]: submicromolar
C#CCCCOC(=O)NC(Cc1ccc(N)cc1)P(=O)(Oc1ccccc1)Oc1ccccc1 (stereo not shown) [16b] | > 10 | > 10 | 2.67 ± 0.57 | > 10 | > 10 | 3.74 ± 0.27 | 6.85 ± 0.8 | 
O=C(CCCCC1SCC2NC(=O)NC21)NCCOCCOCCOCCn1cc(CCCOC(=O)NC(Cc2ccccc2)P(=O)(Oc2ccccc2)Oc2ccccc2)nn1 (stereo not shown) [compound 43] |  |  |  |  |  |  |  | IC50 ([1]; read-out: uPA IC50, biotin probes, 15 min preincubation at 37 °C, mean ± SD): > 10 µM; IC50 ([2]; read-out: Thrombin IC50, biotin probes, 15 min preincubation at 37 °C, mean ± SD): > 10 µM; IC50 ([3]; read-out: ChTryp IC50, biotin probes, 15 min preincubation at 37 °C, mean ± SD): 2.64 µM; IC50 ([4]; read-out: β-tryptase IC50, biotin probes, 15 min preincubation at 37 °C, mean ± SD): > 10 µM; IC50 ([5]; read-out: NE IC50, biotin probes, 15 min preincubation at 37 °C, mean ± SD): > 10 µM; IC50 ([6]; read-out: CatG IC50, biotin probes, 15 min preincubation at 37 °C, mean ± SD): 2.77 µM; IC50 ([7]; read-out: Trypsin-3 IC50, biotin probes, 15 min preincubation at 37 °C, mean ± SD): > 10 µM
C#CCCCOC(=O)NC(Cc1ccc(CN)cc1)P(=O)(Oc1ccccc1)Oc1ccccc1 (stereo not shown) [22b] | 2.3 ± 0.1 | > 10 | > 10 | > 10 | > 10 | 5.26 ± 0.68 | 3.82 ± 0.19 | 
C#CCCCOC(=O)NC(c1ccc(N)cc1)P(=O)(Oc1ccccc1)Oc1ccccc1 (stereo not shown) [19b] | > 10 | 6.59 ± 3.9 | 8.52 ± 1.81 | > 10 | > 10 | > 10 | 9.06 ± 1.1 | 
C#CCCCOC(=O)NC(Cc1ccccc1)P(=O)(Oc1ccccc1)Oc1ccccc1 (stereo not shown) [compound 12] | > 10 | > 10 | 1.54 ± 1.34 | > 10 | > 10 | > 10 | > 10 | 
C#CCCCOC(=O)NC(CCCCN)P(=O)(Oc1ccccc1)Oc1ccccc1.O=C(O)C(F)(F)F (stereo not shown) [29b] | 5.27 ± 0.15 | 7.36 ± 0.25 | 5.87 ± 3.39 | 3.96 ± 0.5 | > 10 | > 10 | 0.07 ± 0.02 | Trypsin-3 IC50 [7, 8]: nanomolar inhibition
C#CCCCOC(=O)NC(CCCN)P(=O)(Oc1ccccc1)Oc1ccccc1.O=C(O)C(F)(F)F (stereo not shown) [14b] | > 10 | > 10 | > 10 | > 10 | > 10 | > 10 | > 10 | uPA IC50 [1, 9]: inactive; Thrombin IC50 [2, 9]: inactive; ChTryp IC50 [3, 8]: inactive; β-tryptase IC50 [4, 9]: inactive; NE IC50 [5, 8]: inactive; CatG IC50 [6, 8]: inactive; Trypsin-3 IC50 [7, 8]: inactive
C#CCCCOC(=O)NC(Cc1ccc(N)cc1)P(=O)(Oc1ccc(Cl)cc1)Oc1ccc(Cl)cc1 (stereo not shown) [18b] | 6.38 ± 0.52 | 7.88 ± 0.61 | 0.19 ± 0.14 | > 10 | > 10 | 0.36 ± 0.01 | 1.72 ± 0.19 | ChTryp IC50 [3, 8]: submicromolar; CatG IC50 [6, 8]: submicromolar
C#CCCCOC(=O)NC(CCCCN)P(=O)(Oc1ccc(NC(=O)OC)cc1)Oc1ccc(NC(=O)OC)cc1 (stereo not shown) [30b] | 2.44 ± 0.35 | 1.18 ± 0.07 | > 10 | 0.68 ± 0.05 | > 10 | 0.56 ± 0.002 | 0.006 ± 0.0006 | Trypsin-3 IC50 [7, 8]: nanomolar inhibition
CC(=O)Nc1ccc(OP(=O)(Oc2ccc(NC(C)=O)cc2)C(CCCCN)NC(=O)OCCCc2cn(CCOCCOCCOCCNC(=O)CCCCC[C@H]3NC(=O)N[C@H]3C)nn2)cc1 (stereo partly drawn) [49b, 3-(1-(18-((4R,5S)-5-methyl-2-oxoimidazolidin-4-yl)-13-oxo-3,6,9-trioxa-12-azaoctadecyl)-1H-1,2,3-triazol-4-yl)propyl (5-amino-1-(bis(4-acetamidophenoxy)phosphoryl)pentyl)carbamate trifluoroacetate salt] |  |  |  |  |  |  |  | IC50 [1, 10]: 6.75 ± 0.52 µM; IC50 [2, 11]: 1.18 ± 0.04 µM; IC50 [3, 12]: > 10 µM; IC50 [4, 13]: 1.11 ± 0.05 µM; IC50 [5, 14]: > 10 µM; IC50 [6, 15]: 4.47 ± 0.51 µM; IC50 [7, 16]: 0.09 ± 0.005 µM
C#CCCCOC(=O)NC(c1ccc(N)cc1)P(=O)(Oc1ccc(Cl)cc1)Oc1ccc(Cl)cc1 (stereo not shown) [21b] | > 10 |  |  | > 10 |  | > 10 |  | 
C#CCCCOC(=O)NC(Cc1ccc(CNC(=N)N)cc1)P(=O)(Oc1ccccc1)Oc1ccccc1 (stereo not shown) [40b] | > 10 | > 10 | > 10 | > 10 | > 10 | 6.16 ± 0.48 | > 10 | 
C#CCCCOC(=O)NC(c1ccc(N)cc1)P(=O)(Oc1ccc(NC(C)=O)cc1)Oc1ccc(NC(C)=O)cc1 (stereo not shown) [20b] | > 10 |  |  | > 10 |  | > 10 |  | 
CC(C)C(NC(=O)OCCCc1cn(CCOCCOCCOCCNC(=O)CCCCC[C@H]2NC(=O)N[C@H]2C)nn1)P(=O)(Oc1ccccc1)Oc1ccccc1 (stereo partly shown) [compound 44] | > 10 | > 10 | > 10 | > 10 | 4.7 ± 0.2 | > 10 | > 10 | 
C[C@@H]1NC(=O)N[C@@H]1CCCCCC(=O)NCCOCCOCCOCCn1cc(CCCOC(=O)NC(CCCCN)P(=O)(Oc2ccccc2)Oc2ccccc2)nn1 (stereo partly shown) [47b] |  |  |  |  |  |  |  | IC50 [1, 10]: 4.62 ± 0.17 µM; IC50 [2, 11]: 3.55 ± 0.17 µM; IC50 [3, 12]: > 10 µM; IC50 [4, 13]: 2.49 ± 0.19 µM; IC50 [5, 14]: > 10 µM; IC50 [6, 15]: > 10 µM; IC50 [7, 16]: 0.52 ± 0.24 µM
C#CCCCOC(=O)NC(C1CCNCC1)P(=O)(Oc1ccccc1)Oc1ccccc1 (stereo not shown) [23b] | > 10 | > 10 | > 10 | > 10 | > 10 | > 10 | > 10 | 
C#CCCCOC(=O)NC(C(C)C)P(=O)(Oc1ccccc1)Oc1ccccc1 (stereo not shown) [compound 13] | > 10 | > 10 | > 10 | > 10 | > 10 | > 10 | > 10 | NE IC50 [5, 8]: not potent
C[C@@H]1NC(=O)N[C@@H]1CCCCCC(=O)NCCOCCOCCOCCn1cc(CCCOC(=O)NC(Cc2ccccc2)P(=O)(Oc2ccccc2)Oc2ccccc2)nn1 (stereo partly shown) [compound 42] | > 10 | > 10 | 2.07 ± 0.85 | > 10 | > 10 | 3.23 ± 0.29 | > 10 | 
